From patent US11267815B2, “Class of amino-substituted nitrogen-containing fused ring compounds, preparation method therefor, and use thereof” (SHANGHAI RINGENE BIOPHARMA CO., LTD., priority 2017, dated 2022)
Read-outs that look alike come from different tables or passages of the source.

Key:
[1] = molecular target: FGFR1 (Homo sapiens (Human), UniProt P11362); test: Inhibitory activity on kinase FGFR1 (Caliper mobility shift); type: biochemical
Protocol: (§1) (1). Preparation of 1×Kinase buffer; (2) Preparation of the gradient concentrations of the compounds: the concentration of the compounds to be tested started from 10 μM, which was 3-fold diluted to prepare 10 dilutions, and then tested in duplicated wells. The compounds were 100-fold serially diluted into 10 dilutions with different final concentrations in 96-well plates, each of which was further diluted with 1×Kinase buffer to prepare an intermediate dilution having a concentration of 5 times the final concentration; (3) adding 5 μL of each of the prepared compound solution into the compound wells of 384-well plates, and each concentration set single well; adding 5 μL of 5% DMSO into negative control wells and positive control wells respectively; (4) preparing a kinase solution having a concentration of 2.5 times the final concentration with 1×kinase buffer; (5) adding 10 μL of kinase solution at a concentration of 2.5 times the final concentration into the compound wells and the positive control wells respectively; and adding 10 μL of 1×Kinase buffer into the negative control wells; (6) centrifuging at 1000 rpm for 30 seconds, and incubating at room temperature for 10 minutes after shaking and mixing evenly; (7) preparing a mixed solution of ATP and Kinase substrate 22 having a concentration of 2.5 times the final concentration with 1×Kinase Buffer; (8) adding 10 μL of the mixed solution of ATP and substrate at a concentration of 2.5 times the final concentration to initiate the reaction; (9) Centrifuging the 384-well plates at 1000 rpm for 30 seconds, and incubating at 28° C. for corresponding time respectively after shaking and mixing; (10) adding 30 μL of stop detection solution to stop the kinase reaction, centrifuging at 1000 rpm for 30 seconds, and shaking and mixing the mixture evenly; (11) reading the conversion rate by Caliper Ezreader II. The dose-effect curve was fitted by the log (inhibitor) vs. response-variable slope of GraphPad Prism 5 with the log value of concentration as the X axis and the percentage inhibition rate as the Y axis, then the IC50 value of each compound on the enzyme activity was obtained.

[2] = molecular target: FGFR4 (Homo sapiens (Human), UniProt P22455); test: Inhibitory activity on kinase FGFR4 (Caliper mobility shift); type: biochemical
Protocol: as §1

[3] = test system: Hep3B cells; test: Hep3B cell proliferation (CellTiter-Glo, 72 hours); type: cell-based; conditions: Homo sapiens, Hep3B
Protocol: 1. Test method: inoculating Hep3B cells (ATCC) in logarithmic growth phase at an appropriate density in a 96-well culture plate, with 100 μL per well. After overnight culture, different concentrations of compounds were added to stay for 72 hours, and menstruum control group (negative control) was set, and the incubation was performed under the condition of 5% CO2 at 37° C. Adding 10 mM compound stock solution to the cells, after the cells were incubated with the compounds for 72 hours, the effects of the compounds on cell proliferation were determined by CellTiter-Glo (Promega) method. 30 μL CTG reagent was added to each well and the resulting mixtures were placed in a 37° C. incubator for 2-4 hours. Then the plate was read by a full-wavelength microplate enzyme reader Envision at a […].
The inhibition rates (%) of the compounds on tumor cell growth were calculated by the following formula: inhibition rate (%)=(OD negative control well−OD administration well)/OD negative control well×100%. IC50 values were obtained by four parameters regression using Graphpad Prism 5 software.

[4] = test system: various tumor cells (HuH-7, SNU-16, KG1, UM-UC-14, RT-112 etc.); test: Proliferation inhibitory activity on various tumor cells (SRB or CCK8); type: cell-based; conditions: SRB or CCK8 method; read-out: proliferation inhibitory activities on various tumor cells
[5] = ADME tests: liver microsome metabolic stability and direct inhibition test; type: in vitro ADME; conditions: metabolic stability, direct inhibition test
Protocol: (1) Metabolic stability test: 150 μL system of liver microsome (final concentration 0.5 mg/mL) was used for metabolic stability incubation, the system contained NADPH (final concentration 1 mM), 1 μM test compound and positive control Midazolam or negative control Atenolol, then the reaction was terminated with Tinidazole-containing acetonitrile at 0 min, 5 min, 10 min and 30 min respectively, and the mixtures were vortexed for 10 minutes and centrifuged for 10 minutes at 15000 rmp, 50 μL of the supernatants were added into 96-well plate for injection. The metabolic stability of the compounds was calculated by measuring the relative reduction of the original drug.
(2) Direct inhibition test (DI test): Direct inhibition incubation was carried out with 100 μL system of human liver microsome (final concentration 0.2 mg/mL), the system containing NADPH (final concentration 1 mM), 10 μM compound, positive inhibitor cocktail (Ketoconazole 10 μM, Quinidine 10 μM, Sulfaphenazolum 100 μM, α-Naphthoflavone 10 μM, Tranylcypromine 1000 μM), negative control (BPS containing 0.1% DMSO) and mixed probe substrates (Midazolam 10 μM, Testosterone 100 μM, Dextromethorphan […], Diclofenac 20 μM, Phenacetin 100 μM, Mephenytoin 100 μM) was incubated for 20 minutes and then the reaction was terminated. The relative activity of enzymes was calculated by measuring the relative production of metabolites.

[6] = test system: xenograft tumors; test: Xenograft tumor growth in nude mice; type: in vivo; conditions: oral, daily for three weeks, lower dose (even less than 20 mg/kg)
Protocol: 1. The tumor tissue in vigorous growth period was cut into about 1.5 mm^3, and subcutaneously inoculated into the right armpit of nude mice under sterile condition. The diameter of the subcutaneous transplanted tumors in nude mice was measured with vernier caliper, and the animals were randomly divided into groups when the average volume of the tumor reached about 130 mm^3. The embodiment compounds (prepared to the desired concentration with water for injection containing 1% Tween 80 for later use) were orally administered at a predetermined dose every day for three weeks, while a same amount of menstruum was administered in the menstruum control group. During the whole experiment, the diameter of the xenograft tumor was measured twice a week and the weight of the mice was weighed at the same time. The tumor volume (TV) was calculated by the formula: TV=½×a×b^2, where a and b represent length and width respectively. According to the measured results, the relative tumor volume (RTV) was calculated by the formula: RTV=Vt/V0, where V0 was the tumor volume measured when the mice were divided into cages for administration (i.e., d0) and Vt was the tumor volume at each measurement. […]

Chain of FGFR4 (P22455 22-802): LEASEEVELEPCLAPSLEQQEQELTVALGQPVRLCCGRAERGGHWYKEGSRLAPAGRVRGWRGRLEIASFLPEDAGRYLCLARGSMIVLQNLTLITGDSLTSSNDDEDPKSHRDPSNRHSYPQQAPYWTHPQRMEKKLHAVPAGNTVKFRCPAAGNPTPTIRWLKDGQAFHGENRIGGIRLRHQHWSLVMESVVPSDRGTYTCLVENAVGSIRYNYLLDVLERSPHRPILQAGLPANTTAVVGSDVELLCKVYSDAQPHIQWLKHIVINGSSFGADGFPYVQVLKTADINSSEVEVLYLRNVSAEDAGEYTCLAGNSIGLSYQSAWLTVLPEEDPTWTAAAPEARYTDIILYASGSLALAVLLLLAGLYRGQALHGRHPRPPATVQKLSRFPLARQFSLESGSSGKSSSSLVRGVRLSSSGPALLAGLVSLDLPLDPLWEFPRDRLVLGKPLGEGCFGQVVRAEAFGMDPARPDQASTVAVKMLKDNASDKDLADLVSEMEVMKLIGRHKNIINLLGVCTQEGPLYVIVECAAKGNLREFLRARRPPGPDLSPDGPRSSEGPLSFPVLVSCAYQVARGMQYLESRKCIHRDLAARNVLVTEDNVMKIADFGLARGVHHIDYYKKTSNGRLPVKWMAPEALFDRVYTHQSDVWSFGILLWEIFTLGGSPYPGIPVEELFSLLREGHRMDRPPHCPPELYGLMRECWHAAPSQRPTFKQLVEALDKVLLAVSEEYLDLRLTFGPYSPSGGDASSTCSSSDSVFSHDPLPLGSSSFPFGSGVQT
Chain of FGFR1 (P11362 22-822): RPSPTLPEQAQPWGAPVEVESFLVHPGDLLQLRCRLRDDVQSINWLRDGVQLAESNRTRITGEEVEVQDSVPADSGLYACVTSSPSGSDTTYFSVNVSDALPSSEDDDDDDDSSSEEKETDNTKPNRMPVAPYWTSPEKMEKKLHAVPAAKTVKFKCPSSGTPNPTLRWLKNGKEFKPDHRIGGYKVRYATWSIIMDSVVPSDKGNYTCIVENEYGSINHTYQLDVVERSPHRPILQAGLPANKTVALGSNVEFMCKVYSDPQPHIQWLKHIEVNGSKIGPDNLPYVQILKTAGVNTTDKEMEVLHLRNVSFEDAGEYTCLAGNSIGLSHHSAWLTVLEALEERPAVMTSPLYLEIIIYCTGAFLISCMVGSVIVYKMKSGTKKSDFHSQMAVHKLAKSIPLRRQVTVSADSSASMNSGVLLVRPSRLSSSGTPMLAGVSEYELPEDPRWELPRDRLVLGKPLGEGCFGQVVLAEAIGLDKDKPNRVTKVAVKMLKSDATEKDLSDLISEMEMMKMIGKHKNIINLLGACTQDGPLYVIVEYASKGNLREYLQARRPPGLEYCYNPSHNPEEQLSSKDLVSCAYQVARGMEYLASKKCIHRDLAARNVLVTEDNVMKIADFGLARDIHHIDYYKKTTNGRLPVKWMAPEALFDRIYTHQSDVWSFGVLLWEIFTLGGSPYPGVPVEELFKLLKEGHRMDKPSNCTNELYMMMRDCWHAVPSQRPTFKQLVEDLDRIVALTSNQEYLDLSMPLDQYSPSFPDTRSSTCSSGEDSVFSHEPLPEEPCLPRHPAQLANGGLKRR

IC50 ([1]; read-out: FGFR1 IC50): < 20 nM
IC50 ([1]; read-out: IC50 of inhibitory activity on FGFR1): < 1 nM
IC50 ([2]; read-out: FGFR4 IC50): < 20 nM
IC50 ([2]; read-out: IC50 of inhibitory activity on FGFR4): < 1 nM
IC50 ([3]; read-out: Hep3B IC50): < 20 nM
IC50 ([3]; read-out: Hep3B cells inhibitory activity IC50): < 10 nM
IC50 [4]: < 100 nM
ADME properties [5]: better ADME properties
SMILES: C=CC(=O)N1CCN(CCCc2cn3c(n2)c(-c2c(Cl)c(OC)cc(OC)c2Cl)cc2cnc(NC)nc23)CC1 [Embodiment 3, 1-(4-(3-(6-(2,6-dichloro-3,5-dimethoxyaniline)-2-(methylamine)imidazo[1′,2′:1,6]pyrido[2,3-d]pyrimidin-8-yl)propyl)piperazine-1-yl)prop-2-en-1-one]
anti-tumor rate [6]: more than 80%
